The source of these data is patent US8354447B2, “mGLU receptors antagonists for treating disorders associated with mGLU receptors including addiction and depression” (The Scripps Research Institute, priority 2002, dated 2013).

Like-named read-outs stand apart in the source and are kept apart here.

Series [1] has as its system male Wistar rats. Briefly: ICSS thresholds during and after withdrawal from chronic nicotine, bupropion. The series is classed as in vivo, rat. An excerpt: Trials began with an electrical stimulus followed by a 7.5-s response window within which the animal could make a response to receive a second contingent stimulus identical to the initial noncontingent stimulus. A response during this 7.5-s window was considered a positive response, whereas the lack of a response was considered a negative response. Additional responses during a 2-s period immediately following a positive response had no consequence. The intertrial interval (ITI) that followed either a positive response or the end of the response window (in the case of a negative response) ranged from 7.5 to 12.5 s with an average duration of 10 s. […] Subjects then were tested on a current-threshold procedure in which stimulus intensities were varied during four alternating descending and ascending series with a step size of […]. Blocks of three trials were offered at each current step with the starting current of the first descending series set at […] above the subjects' individual baseline thresholds estimated at the end of preliminary training. […] An ascending series was terminated after two consecutive blocks of trials during which the animal made positive responses on at least two out of the three trials or after 15 successive increments were presented. The mean of the four current thresholds from the alternating series was defined as the subject's ICSS threshold for that session. A series was terminated after either 15 stimulus increments (or decrements) had occurred, or after the determination of the threshold for the series (see below). Each test session typically lasted 30 min.
Naive animals were prepared with osmotic minipumps containing either an individualized nicotine solution (3.16 mg/kg per day, free base) or saline. […] After implantation of the minipumps, thresholds were assessed daily thereafter to assess the effects of chronic nicotine exposure on reward thresholds. Seven days (exactly seven 24-h periods) after pump insertion, the pumps were removed in order to precipitate the nicotine withdrawal syndrome. ICSS thresholds were measured 12, 18, 24, 36, 48 and 72 h after pump removal. Animals were injected with bupropion (0, 10, 20, 40 mg/kg IP; n=8-11) 30 min prior to the 18-h time point.

For series [2], the system named is male Wistar rats. The settings on record: nicotine 0.25 mg/kg SC.
From the text: Trials began with an electrical stimulus followed by a 7.5-s response window within which the animal could make a response to receive a second contingent stimulus identical to the initial noncontingent stimulus. A response during this 7.5-s window was considered a positive response, whereas the lack of a response was considered a negative response. Additional responses during a 2-s period immediately following a positive response had no consequence. The intertrial interval (ITI) that followed either a positive response or the end of the response window (in the case of a negative response) ranged from 7.5 to 12.5 s with an average duration of 10 s. […] Subjects then were tested on a current-threshold procedure in which stimulus intensities were varied during four alternating descending and ascending series with a step size of 5 mA. Blocks of three trials were offered at each current step with the starting current of the first descending series set at 30-40 mA above the subjects' individual baseline thresholds estimated at the end of preliminary training. […] An ascending series was terminated after two consecutive blocks of trials during which the animal made positive responses on at least two out of the three trials or after 15 successive increments were presented. The mean of the four current thresholds from the alternating series was defined as the subject's ICSS threshold for that session. A series was terminated after either 15 stimulus increments (or decrements) had occurred, or after the determination of the threshold for the series (see below). Each test session typically lasted 30 min.
In series [3] the test system is male Wistar rats. Briefly: Somatic signs of the nicotine withdrawal syndrome. The series is classed as in vivo, rat. The settings on record: six hours after removal of the nicotine-containing minipumps. The method, then:
Rats were placed individually in transparent plastic cylindrical containers (30×38 cm) in which they could move freely. Subjects were habituated to the containers for 10 min each day over 3 days before the first test session. During the test sessions the rats were observed blindly by an experienced observer for 10 min and the frequency of the following signs was recorded based on a checklist of nicotine abstinence signs (Hildebrand et al. 1999; Watkins et al. 2000; Malin 2001): body shakes, chews, cheek tremors, escape attempts, eye blinks, foot licks, gasps, genital licks, head shakes, ptosis, scratches, teeth chattering, writhes and yawns. Multiple successive counts of any sign required a distinct pause between episodes. Ptosis, if present continuously, was only counted once per minute. For statistical analyses, the total number of somatic signs was defined as the sum of individual occurrences of the above mentioned withdrawal signs. Further, the categories of “abdominal constrictions” included gasps and writhes; “facial fasciculation” included cheek tremors, chews, and teeth chattering; and “miscellaneous other signs” included shakes, escape attempts, licks, scratches, and yawns.
Separate drug-naive rats were prepared with osmotic minipumps containing nicotine (3.16 mg/kg per day for 7 days) dissolved in saline. […] Further, this nicotine dose was selected to allow direct comparison of the effects of bupropion on somatic signs (present experiment 4) and on reward threshold elevations (experiment 3 described above) observed during nicotine withdrawal. To induce the somatic signs of nicotine withdrawal the minipumps were removed 6 days and 18 h after implantation. The behavioral observations were conducted 6, 12 and 24 h after the removal of the minipumps. The rats were injected with bupropion (0, 5, 10, 20, 40 mg/kg, IP; n=6-8), 30 min prior to the 12-h time point. The selection of the time points was based on the time-course of the expression of the somatic signs after the termination of nicotine exposure (Epping-Jordan et al. 1998; Harrison et al. 2001a; Semenova and Markou 2003; Skjei and Markou 2003).

The next series concerns mice. To be noted: Chiamulera et al. 2001; cited from earlier work.
The next series relates to drug-naïve rats. To be noted: cited from earlier work.
A further series concerns rats. The settings on record: 2.5-10 mg/kg i.p.; cited from earlier work.
Series [4] relates to Wistar rats. Briefly: Cocaine-induced lowering of ICSS thresholds. The series is classed as in vivo, rat.
The subject of series [5] is Wistar rats. Briefly: Nicotine self-administration under a fixed ratio schedule (LY341495, LY341495 and MPEP). To be noted: MPEP 1 mg/kg alone.
Series [6] relates to Wistar rats. Briefly: Cocaine self-administration under a fixed ratio schedule, ShA and LgA rats. The series is classed as in vivo, rat. The method, then: Rats (n=14) were food restricted to maintain them at 85% of their normal body weight obtained under free-feeding conditions, then trained to press a lever for 45 mg food pellets on a fixed-ratio 5 (FR5) schedule of reinforcement. […] Thus, a FR5 TO20 sec schedule of reinforcement was used.
The frequency of the stimulation was selected for individual animals so that baseline current-intensity thresholds of each subject were within 50-200 μA, and thus allowed both threshold elevations and lowerings to be detected. The frequency was held constant throughout the experiment. […] Current intensities were altered in 5 μA steps. […] Each testing session was ~30 min in duration. […] From day 10 onwards (the ‘escalation’ period), access to cocaine self-administration was increased from 1 h to 6 h per daily session in one group of rats (Long Access or LgA rats; n=7). Previous studies have shown that this schedule of access to cocaine self-administration results in a progressive increase or ‘escalation’ in daily cocaine consumption (Ahmed and Koob, 1997; Ahmed et al. 2001). In the other group (Short Access or ShA rats; n=7), access to cocaine self-administration was maintained at 1 h per daily session. Previous studies have shown that this schedule of access to cocaine self-administration maintains a stable level of daily cocaine consumption. After 22 days of 1 h (ShA) or 6 h (LgA) daily access to cocaine self-administration, both groups of rats received their first MPEP injection.

The mark [7] stands for this setting: MPEP 3 mg/kg, 10, 40, 70 and 100 min.

On to `CN1CCCC1c1cccnc1` (single isomer, unassigned; (-)) [nicotine, (−)-1-methyl-2-(3-pyridyl) pyrrolidine], for which the “day of maximal threshold-lowering effect” value in the series on male Wistar rats [1] (nicotine via minipumps) is 3 days. Further, the brain reward threshold entry with male Wistar rats [1] (nicotine via minipumps 3.16 mg/kg per day for 7 days) was “small yet significant reduction in brain reward threshold”. The “time points with significant elevation in reward thresholds post-withdrawal” value in the series with male Wistar rats [1] (nicotine withdrawal, saline-injected animals) was “up to 36 h”. For the same molecule, the brain reward thresholds entry in the series with male Wistar rats [1] (withdrawal from chronic nicotine administration) is reported as “significantly elevated brain reward thresholds”; in the series on male Wistar rats [2], “resulted in lowering of brain reward thresholds”. The “total somatic signs of abstinence” value with male Wistar rats [3] was “significant increase in the amount of total somatic signs of abstinence”.

Take `Cc1cccc(C#Cc2ccccc2)n1` [MPEP, 2-methyl-6-(phenylethynyl)-pyridine]: the cocaine self-administration result is “dose-dependent reduction in cocaine self-administration without affecting responding for food” in the series on mice; “decreased cocaine self-administration in ShA and LgA rats” with Wistar rats [6] (MPEP 1-9 mg/kg, FR5 TO20 sec). For the same molecule, the “reward-lowering effect of nicotine in a brain reward stimulation procedure” value in the series with drug-naïve rats (0.25 mg/kg nicotine (Harrison et al. 2002)) is “had no effect on the reward-lowering effect of 0.25 mg/kg nicotine”. In the series with drug-naïve rats (previous studies (Harrison et al., 2002; Macey et al., 2001)), the “dose that elevated ICSS thresholds in drug-naïve rats” value is given as not below 3 mg/kg. For the same molecule, the exploratory locomotor activity result in the series on rats is reported as “had no effect on exploratory locomotor activity in rats”. Moreover, the “duration of cocaine-induced lowering of ICSS thresholds” value in the series on Wistar rats [4] (MPEP 3 mg/kg) is reported as “did not attenuate the duration of time that cocaine lowered ICSS thresholds”. For the same molecule, the ICSS Thresholds entry in the series with Wistar rats [4] (setting [7]) is “had no effect on ICSS thresholds at any time-point”; in the series on Wistar rats [4] (MPEP 9 mg/kg before cocaine 10 mg/kg, compared to cocaine-treated rats that received vehicle), “significantly elevated in cocaine-treated rats that previously received MPEP (9 mg/kg) compared to cocaine-treated rats that received vehicle injection”; in the series on Wistar rats [4] (MPEP 9 mg/kg before cocaine 10 mg/kg, compared to saline-treated rats pretreated with vehicle) it was “still significantly lowered compared to saline-treated rats pretreated with vehicle”; in the series with Wistar rats [4] (MPEP alone, 6 and 9 mg/kg significant), “significantly elevated ICSS thresholds”. Moreover, the ICSS response Latencies result was “had no effect on response latencies at any time-point” with Wistar rats [4] (setting [7]) and “significantly increased response latencies” with Wistar rats [4] (MPEP, only the highest dose (9 mg/kg)). Moreover, the “magnitude of cocaine-induced lowering of ICSS thresholds” value with Wistar rats [4] (MPEP 1-9 mg/kg) was “did not attenuate the magnitude of the lowering in ICSS thresholds observed after systemic cocaine administration”. For the same molecule, the “cocaine or nicotine self-administration” value in the series with Wistar rats [5] is “has no effects on cocaine or nicotine self-administration”. The cocaine responding result is “significantly decreased cocaine responding in the collapsed group” in the series with Wistar rats [6] (3, 6 and 9 mg/kg MPEP, ShA and LgA rats collapsed); “significantly decreased cocaine responding in ShA rats” in the series with Wistar rats [6] (3, 6 and 9 mg/kg MPEP, ShA rats); “significantly decreased cocaine responding in LgA rats” in the series on Wistar rats [6] (only the highest dose of MPEP (9 mg/kg), LgA rats).
